Experiments:
rat brain homogenate = experiment: Formation of lipid peroxide through the autoxidation of rat brain homogenate (TBA method); type: biochemical; conditions: for Amount of MDA: 37° C. 30 min, mean ± standard deviation (n = 3); for Rate of Suppression: suppression of lipid peroxide formation
Protocol: The present compound was examined for the effect on the formation of lipid peroxide through the autoxidation of a rat brain homogenate.
Wistars rat (purchased from SLC Japan (Kabushiki Kaisha)) were decapitated without anesthesia and the skull was immediately opened and the brain removed. The brain taken out was washed with ice-cooled, phoshate buffered saline (PBS (50 mM, pH 7.4)), lightly blotted with filter paper and weighed. Four times ice-cooled PBS was added to the brain and homogenized in ice. The homogenate was centrifuged at 1000×g (2700 rpm) for 10 min at 0° C. The supernate thus obtained was used for the test. To 100 μl of the test compound were added 700 μl of PBS and 200 μl of the supernate of the brain homogenate, and incubated at 37° C. for 30 min. A control group and a blank group were incubated with PBS, with the blank group at 0° C. for 30 min. Then, 200 μl of 35% perchloric acid was added to cease the reaction and the mixture was centrifuged at 1300×g (3200 rpm) for 10 min at 0° C. Using the supernate as a sample, the amount of malondialdehyde (MDA) formed was determined by thiobarbituric acid colorimetric method (TBA method).
To 0.11 g (0.5 mmol) of 1,1,3,3-tetraethoxypropane was added methanol to make 50 ml of volume. This solution was diluted 10^3, 3×10^3 and 10^4-folds with methanol and used as the standards (10 μM, 3 μM, 1 μM). Methanol was assigned to 0 μM.
To 1 ml of each of the samples or the standards were added 0.2 ml of 8.1% sodium dodecylsulfate (SDS), 1.5 ml of 20% acetate buffer (pH 3.5) and 0.8% thbiobarbituric acid (TBA) and incubated in a boiling water bath for 60 min. After ice-cooling to cease the reaction, 4 ml of butanol-pyridine (15:1) was added and mixed well. After centrifugation at 1200×g (3000 rpm) for 10 min, the fluorescence intensity of the butanol-pyridine layer was measured at the wavelength of 553 nm with the excitation wavelength of 515 nm.
The rate of suppression of lipid peroxide formation was calculated according to the following equation for each test compound.
Rate of suppression of lipid peroxide formation (%)=[1-(C-A/B-A)]×100
A: Amount (μM) of formed MDA for the blank group
B: Amount (μM) of formed MDA for the control group
C: Amount (μM) of formed MDA for a test compound group

[1] = tested on: acetaminophen-induced hepatopathy; experiment: Effect on acetaminophen-induced hepatopathy in mice; type: in vivo; conditions: male ddy mice
Protocol: The present compound was examined for the effect on acetaminophen-induced hepatopathy in mice.
The compound of Example 2 (abbreviated to ETS-GS-Na) 0.1 mmol/ 10 ml/kg, i.p.
7-week old male ddy mice purchased from SLC Japan (Kabushiki Kaisha) were used for the test following a 24-hour fasting.
Hepatopathy was induced by oral administration of 250 mg/10 ml/kg acetaminophen (dissolved by warming).
24 hours after the oral administration of acetaminophen, blood were sampled for measurement of GOP and GPT activities, indices of hepatopathy. The mice were kept on fasting for 48 hours until the blood sampling was made.
The test compound was intraperitoneally injected 30 min before the administration of acetaminophen.

[2] = tested on: buthionine sulfoximine (BSO)-induced cataract; experiment: Effect on BSO-induced cataract in rats; type: in vivo; conditions: newborn SD rats
Protocol: The present compound was examined for the effect on buthionine sulfoximine (BSO)-induced cataract in rats.
The compound of Example 2 (abbreviated to ETS-GS-Na) 0.1 mmol/10 ml/kg, i.p.
The test was performed according to the method of Maitra et al.
Indrani Maitra, Elena Serbinova et al., α-Lipoic Acid Prevents Buthionine Sulfoximine-induced Cataract Formation in Newborn Rats Free Radical Biology & Medicine, Vol. 18, No. 4, pp.823-829, 1995.
28 to 36-hour old SD rats purchased from SLC Japan (Kabushiki Kaisha) were used for the test.
Cataract was induced by subcutaneously administering 3 mmol/kg of BSO at 8:00 A.M. and 4:00 P.M. for 2 days.
Observation of cataract was performed using a slit lamp microscope after the newborn rats opened their eyes after the BSO administration. The opacity of each of the lenses was assessed and classified into one of the following 0-5 grades.
0: a clear lens without opacity
1: a lens with opacities in part of the equatorial region
2: a lens with opacities along the equatorial region
3: a lens with opacities in part of the cortex
4: a lens with opacities in the whole cortex
5: a lens with opacities advancing up to the central region.
The test compound was intraperitoneally administered 4 and 12 hours after the administration of BSO.

[3] = 0.1 mmol/10 ml/kg i.p. 30 min before acetaminophen 250 mg/kg p.o., blood 24 hours after acetaminophen

Compound | Amount of MDA (rat brain homogenate; 3 × 10^−5M) [µM] | Rate of Suppression (rat brain homogenate; 3 × 10^−5M) | Amount of MDA (rat brain homogenate; 3 × 10^−6M) [µM] | Rate of Suppression (rat brain homogenate; 3 × 10^−6M) | Amount of MDA (rat brain homogenate; 10^−5M) [µM] | Rate of Suppression (rat brain homogenate; 10^−5M) | Amount of MDA (rat brain homogenate; 10^−6M) [µM] | Rate of Suppression (rat brain homogenate; 10^−6M) | effect on acetaminophen-induced hepatopathy ([1]; 0.1 mmol/10 ml/kg i.p.) | blood GOT activity [1, 3] [IU/1] | blood GPT activity [1, 3] [IU/1] | suppression of BSO-induced cataract ([2]; 0.1 mmol/10 ml/kg i.p.) | average grade of lens opacity ([2]; BSO 3 mmol/kg s.c., 0.1 mmol/10 ml/kg i.p. 4 and 12 hours after BSO, slit lamp, grades 0-5)
Cc1c(C)c2c(c(C)c1OC(=O)C(CC(=O)O)SC[C@H](NC(=O)CC[C@H](N)C(=O)O)C(=O)NCC(=O)O)CCC(C)(CCCC(C)CCCC(C)CCCC(C)C)O2 (stereo partly drawn) [Example 1, S-[2-Carboxy-1-(α-tocopheryl-6-yl-oxycarbonyl)Ethyl]glutathione] | 0.838 ± 0.056 | 93.94 ^*3% | 4.079 ± 0.126 | 40.17 ^*3% | 1.338 ± 0.039 | 85.64 ^*3% | 5.208 ± 0.083 | 21.43 ^*2% |  |  |  |  | 
Cc1c(C)c2c(c(C)c1OC(=O)C(CC(=O)NCCS(=O)(=O)O)SC[C@H](NC(=O)CC[C@H](N)C(=O)O)C(=O)NCC(=O)O)CCC(C)(CCCC(C)CCCC(C)CCCC(C)C)O2 (stereo partly drawn) [Example 2, S-[2-(N-Carbonylaminoethylsulfonic acid)-1-(α-tocopheryl-6-yl-oxycarbonyl)ethyl]glutathione] |  |  |  |  |  |  |  |  | significant suppressing effect | 336±89 | 47±22 | complete suppression | 0
S-[2-(N-Carbonylaminoethylsulfonic acid)-1-(α-tocopheryl-6-yl-oxycarbonyl)ethyl]cysteine [Example 5] | 0.980 ± 0.249 | 91.59 ^*3% | 4.890 ± 0.052 | 26.71 ^*2% | 4.090 ± 0.348 | 39.98 ^*2% | 5.022 ± 0.060 | 24.52 ^*2% |  |  |  |  | 

Source: patent publication US6387882B1, “Vitamin E derivatives” (Senju Pharmaceutical Co., Ltd., priority 1997, dated 2002)
